Assay results: the NIST ThermoML archive (doi:10.1021/je400218d)
Numbers after ± are expanded uncertainties.

Conditions: 298.15 K; 101.33 kPa; Crystal; Pycnometric method

CC1=C(C(=O)O)N2C(=O)[C@@H](NC(=O)[C@H](N)C3=CCC=CC3)[C@H]2SC1 [Cefradin]
molar volume: 0.000268 ± 1.6e-05 m3/mol
